ChEMBL document CHEMBL4400553, “Semisynthesis of epoxy-pimarane diterpenoids from kirenol and their FXa inhibition activities” (Bioorg Med Chem, 2019)

Biological target: Coagulation factor X (Homo sapiens, UniProt P00742)
Assay: Inhibition of human factor Xa using Z-D-Arg-Gly-Arg-pNA.2HCl as substrate preincubated for 15 mins followed by substrate addition by UV absorption analysis

Coagulation factor X, sequence (P00742 41-179 limits assumed): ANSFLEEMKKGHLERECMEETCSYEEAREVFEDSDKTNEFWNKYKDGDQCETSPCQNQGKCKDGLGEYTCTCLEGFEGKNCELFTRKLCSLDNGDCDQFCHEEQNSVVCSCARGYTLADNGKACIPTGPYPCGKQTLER
Coagulation factor X, sequence (P00742 235-488 limits assumed): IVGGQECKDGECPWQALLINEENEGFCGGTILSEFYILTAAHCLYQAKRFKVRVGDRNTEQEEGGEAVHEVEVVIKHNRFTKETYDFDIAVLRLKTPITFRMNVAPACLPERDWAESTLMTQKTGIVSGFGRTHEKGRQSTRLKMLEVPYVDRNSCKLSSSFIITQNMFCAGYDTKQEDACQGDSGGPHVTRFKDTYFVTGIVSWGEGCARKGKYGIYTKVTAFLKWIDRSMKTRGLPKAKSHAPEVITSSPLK

C[C@]12CC[C@@H]3[C@](CC[C@@H]4[C@](C)(CO)C[C@@H](O)C[C@]43C)(C1)O[C@H]2CO gave an IC50 of 6.1 µM.

For C[C@@]1(CO)C[C@@H](O)C[C@]2(C)[C@@H]1CC[C@@]13O[C@H](CO)[C@@](C)(CC[C@@H]21)[C@H]3Br, the IC50 was 7.9 µM.

For CC1(C)OC[C@@H]([C@@]2(C)CC[C@@H]3C4(CC[C@@H]5[C@](C)(CO)C[C@@H](O)C[C@@]35C)OC42)O1 (some centres not stated), the IC50 was 18.5 µM.

C[C@@]1(CO)C[C@@H](O)C[C@@]2(C)C3=C(CC[C@H]12)[C@H]1OC[C@H](O)[C@@]1(C)CC3 was tested, and the IC50 was 27.9 µM.

Work on C[C@]12CC[C@@H]3[C@](CC[C@@H]4[C@](C)(CO)C[C@@H](O)C[C@]43C)(C1)OC2=O yielded an IC50 of 1.7 µM.

C[C@@]1(CO)C[C@@H](O)C[C@@]2(C)[C@@H]3CC[C@](C)(C(=O)O)C=C3CC[C@H]12 gave an IC50 of 0.22 µM.

Compound C[C@@]1(CO)C[C@@H](O)C[C@]2(C)[C@@H]1CC[C@@]13O[C@@H](CO)[C@@](C)(CC[C@@H]21)[C@H]3Br has an IC50 of 4.7 µM.

Work on C[C@@]1(CO)C[C@@H](O)C[C@@]2(C)[C@@H]3CC[C@@]4(C)[C@H](OC[C@@H]4O)C3=CC[C@H]12 yielded an IC50 of 17.8 µM.

Compound C[C@@]1(CO)C=C2CC[C@@H]3[C@](C)(CO)C[C@@H](O)C[C@@]3(C)[C@@H]2CC1 has an IC50 of 0.96 µM.

Work on CC1(C)OC[C@@H]([C@]2(C)C=C3CC[C@@H]4[C@](C)(CO)C[C@@H](O)C[C@@]4(C)[C@@H]3CC2)O1 yielded an IC50 of 7.2 µM.

With C[C@]12CC[C@@H]3[C@](CC[C@@H]4[C@](C)(CO)C[C@@H](O)C[C@]43C)(C1)OC2 the IC50 was 7.4 µM.

For C[C@@]1(CO)C[C@@H](O)C[C@@]2(C)[C@@H]3CC[C@](C)([C@@H](O)CO)C=C3CC[C@H]12 [KIRENOL], the IC50 was 2.5 µM.
